What was measured:
[1] = tested on: MYST type of histone acetyltransferase (Tip60 and MOF); settings: cited from earlier work
[2] = tested on: histone H3 acetylation in NALM6 cells overexpressing KANSL1; experiment: Histone H3 acetylation quantification in NALM6 cells overexpressing KANSL1 after MG-149 treatment; assay type: cell-based, human; settings: 20 μM MG-149 added 24 h after KANSL1 plasmid transfection; histones extracted 48 h after transfection; FIG. 15
Procedure: NALM6 cell line was grown in RPMI (ATCC) supplemented with 10% fetal bovine serum (FBS) (Life Technologies), 0.1% L-Glutamine and 0.1% Penicillin Streptomycin (PS) (Life Technologies). Cells were cultured in a humidified atmosphere in an incubator at 37° C. with 5% CO2. Plasmid overexpression transfection was done by electroporation, using the Amaxa® Nucleofector technology (Lonza). Purified plasmid was sent to Maxi-Prep (Hy-Labs) and a concentration of 2 μg was taken for the transfection. As a negative control, a Green Fluorescent Protein (GFP) plasmid provided by the Amaxa kit was used.
Histones were extracted 48 h after transfection. Total histone protein concentration was adjusted to 400 ng/μl. Histone acetylation quantification was analyzed according to the manufacture's protocol (Epigentek).

CCCCCCCc1ccc(CCc2cccc(O)c2C(=O)O)cc1 [MG-149]
selectivity toward MYST type histone acetyltransferase [1]: selectivity toward the MYST type of histone acetyltransferase (Tip60 and MOF)
acetylation of histone H3 (total H3 acetylation level) [2]: inhibited to near control levels

— patent publication US20180179596A1, “HISTONE MODIFICATION AGENTS FOR CANCER TREATMENT” (MOR RESEARCH APPLICATIONS LTD., priority 2015, published 2018)
